Tested on: panel of nearly 500 cancer cell lines
Experiment: Cancer Cell Line Encyclopedia profiling, 3-day CellTiter-Glo
Format: cell-based
Set-up: Amax: unit not given here

## CC(=O)c1c(C)c2cnc(Nc3ccc(N4CCNCC4)cn3)nc2n(C2CCCC2)c1=O [Palbociclib, reference compound]
769p (kidney)
  Amax: -52.63
8305c (thyroid)
  Amax: -51.0145
8505c (thyroid)
  Amax: -0.08134
COV318
  EC50: > 8 µM
COV504
  EC50: > 8 µM
GLC82
  EC50: 0.00254 µM
HCC15
  EC50: > 8 µM
HEC-251
  EC50: > 8 µM
HEY A8
  EC50: 0.947 µM
Homo sapiens, 22Rv1
  EC50: 1.22 µM
Homo sapiens, 639-V
  EC50: > 8 µM
Homo sapiens, 769-P
  EC50: > 8 µM
Homo sapiens, 8305C
  EC50: 0.576 µM
Homo sapiens, 8505C
  EC50: > 8 µM
Homo sapiens, A 172
  EC50: > 8 µM
Homo sapiens, A204
  EC50: 0.407 µM
Homo sapiens, A253
  EC50: > 8 µM
Homo sapiens, A549
  EC50: 1.14 µM
Homo sapiens, A673
  EC50: > 8 µM
Homo sapiens, A2058
  EC50: > 8 µM
Homo sapiens, A2780
  EC50: 1.9 µM
Homo sapiens, A-375
  EC50: 2.72 µM
Homo sapiens, AMO1
  EC50: > 8 µM
Homo sapiens, AN3-CA
  EC50: 5.91 µM
Homo sapiens, ASPC1
  EC50: > 8 µM
Homo sapiens, AU565
  EC50: 0.993 µM
Homo sapiens, AZ-521
  EC50: > 8 µM
Homo sapiens, BFTC-909
  EC50: > 8 µM
Homo sapiens, BGC-823
  EC50: > 8 µM
Homo sapiens, BL-41
  EC50: > 8 µM
Homo sapiens, BT-20
  EC50: > 8 µM
Homo sapiens, BT-474
  EC50: 2.09 µM
Homo sapiens, BT-549
  EC50: > 8 µM
Homo sapiens, C2BBe1
  EC50: 1.73 µM
Homo sapiens, CAKI-2
  EC50: > 8 µM
Homo sapiens, CAL-27
  EC50: > 8 µM
Homo sapiens, CAL-85-1
  EC50: > 8 µM
Homo sapiens, CAMA-1
  EC50: > 8 µM
Homo sapiens, CHL-1
  EC50: > 8 µM
Homo sapiens, COLO 201
  EC50: 0.989 µM
Homo sapiens, COLO 205
  EC50: 1.71 µM
Homo sapiens, COLO 320
  EC50: > 8 µM
Homo sapiens, COLO-679
  EC50: > 8 µM
Homo sapiens, COR-L23
  EC50: > 8 µM
Homo sapiens, Calu-1
  EC50: > 8 µM
Homo sapiens, Calu-3
  EC50: > 8 µM
Homo sapiens, Capan-2
  EC50: > 8 µM
Homo sapiens, DBTRG-05MG
  EC50: > 8 µM
Homo sapiens, DMS-114
  EC50: 0.957 µM
Homo sapiens, DOV13
  EC50: > 8 µM
Homo sapiens, DU-145
  EC50: > 8 µM
Homo sapiens, Daoy
  EC50: > 8 µM
Homo sapiens, Detroit 562
  EC50: 1.94 µM
Homo sapiens, EBC-1
  EC50: 0.242 µM
Homo sapiens, EFE-184
  EC50: > 8 µM
Homo sapiens, EFM-19
  EC50: 0.565 µM
Homo sapiens, EFO-21
  EC50: > 8 µM
Homo sapiens, EFO-27
  EC50: > 8 µM
Homo sapiens, FaDu
  EC50: 2.3 µM
Homo sapiens, G-361
  EC50: > 8 µM
Homo sapiens, G-401
  EC50: 0.644 µM
Homo sapiens, GCIY
  EC50: > 8 µM
Homo sapiens, GMS-10
  EC50: 2.8 µM
Homo sapiens, HCC70
  EC50: > 8 µM
Homo sapiens, HCC78
  EC50: > 8 µM
Homo sapiens, HCC1187
  EC50: > 8 µM
Homo sapiens, HCC1569
  EC50: > 8 µM
Homo sapiens, HCC1806
  EC50: > 8 µM
Homo sapiens, HCC1954
  EC50: 0.597 µM
Homo sapiens, HCC2935
  EC50: > 8 µM
Homo sapiens, HCC4006
  EC50: 0.73 µM
Homo sapiens, HCT-15
  EC50: > 8 µM
Homo sapiens, HCT-116
  EC50: > 8 µM
Homo sapiens, HEC-1-A
  EC50: 0.764 µM
Homo sapiens, HEC-1B
  EC50: 2.77 µM
Homo sapiens, HEL 92.1.7
  EC50: > 8 µM
Homo sapiens, HGC-27
  EC50: 0.539 µM
Homo sapiens, HMCB
  EC50: > 8 µM
Homo sapiens, HPAC
  EC50: 0.69 µM
Homo sapiens, HSC-2
  EC50: > 8 µM
Homo sapiens, HT1197
  EC50: > 8 µM
Homo sapiens, HT-29
  EC50: 0.557 µM
Homo sapiens, HT-144
  EC50: > 8 µM
Homo sapiens, HT-1080
  EC50: > 8 µM
Homo sapiens, HT-1376
  EC50: > 8 µM
Homo sapiens, HepG2
  EC50: 0.819 µM
Homo sapiens, Hs 294T
  EC50: > 8 µM
Homo sapiens, Hs 683
  EC50: 3.62 µM
Homo sapiens, Hs 695T
  EC50: > 8 µM
Homo sapiens, Hs746T
  EC50: 0.231 µM
Homo sapiens, Hs-578T
  EC50: > 8 µM
Homo sapiens, HuCCT-1
  EC50: > 8 µM
Homo sapiens, HuH-1
  EC50: 1.38 µM
Homo sapiens, HuP-T3
  EC50: 1.91 µM
Homo sapiens, HuP-T4
  EC50: > 8 µM
Homo sapiens, HuT78
  EC50: > 8 µM
Homo sapiens, IGR-37
  EC50: > 8 µM
Homo sapiens, IGROV-1
  EC50: > 8 µM
Homo sapiens, IMR-32
  EC50: 0.69 µM
Homo sapiens, IPC-298
  EC50: > 8 µM
Homo sapiens, KALS-1
  EC50: > 8 µM
Homo sapiens, KARPAS-299
  EC50: > 8 µM
Homo sapiens, KARPAS-422
  EC50: > 8 µM
Homo sapiens, KMS-12-BM
  EC50: > 8 µM
Homo sapiens, KNS-42
  EC50: > 8 µM
Homo sapiens, KU812
  EC50: > 8 µM
Homo sapiens, KYSE-30
  EC50: > 8 µM
Homo sapiens, KYSE-410
  EC50: > 8 µM
Homo sapiens, KYSE-520
  EC50: > 8 µM
Homo sapiens, L-363
  EC50: 0.804 µM
Homo sapiens, LCLC-103H
  EC50: > 8 µM
Homo sapiens, LN-18
  EC50: > 8 µM
Homo sapiens, LN-229
  EC50: 1.48 µM
Homo sapiens, LOX IMVI
  EC50: > 8 µM
Homo sapiens, LS-123
  EC50: > 8 µM
Homo sapiens, LS-513
  EC50: > 8 µM
Homo sapiens, Lu-99
  EC50: 1 µM
Homo sapiens, M059J
  EC50: > 8 µM
Homo sapiens, MC116
  EC50: > 8 µM
Homo sapiens, MCF7
  EC50: > 8 µM
Homo sapiens, MDA-MB-157
  EC50: > 8 µM
Homo sapiens, MDA-MB-175-VII
  EC50: > 8 µM
Homo sapiens, MDA-MB-415
  EC50: 6.74 µM
Homo sapiens, MDA-MB-436
  EC50: > 8 µM
Homo sapiens, MDA-MB-453
  EC50: 3.41 µM
Homo sapiens, MDA-MB-468
  EC50: > 8 µM
Homo sapiens, MEG-01
  EC50: > 8 µM
Homo sapiens, MES-SA
  EC50: 0.795 µM
Homo sapiens, MFE-280
  EC50: > 8 µM
Homo sapiens, MG-63
  EC50: 0.532 µM
Homo sapiens, MIA PaCa-2
  EC50: > 8 µM
Homo sapiens, MINO
  EC50: 0.489 µM
Homo sapiens, MKN-7
  EC50: > 8 µM
Homo sapiens, MKN-45
  EC50: > 8 µM
Homo sapiens, MKN-74
  EC50: > 8 µM
Homo sapiens, MSTO-211H
  EC50: > 8 µM
Homo sapiens, Malme-3M
  EC50: 0.714 µM
Homo sapiens, NCI-H23
  EC50: > 8 µM
Homo sapiens, NCI-H28
  EC50: 1.98 µM
Homo sapiens, NCI-H211
  EC50: 0.877 µM
Homo sapiens, NCI-H226
  EC50: > 8 µM
Homo sapiens, NCI-H358
  EC50: 1.49 µM
Homo sapiens, NCI-H441
  EC50: 1.35 µM
Homo sapiens, NCI-H520
  EC50: 0.706 µM
Homo sapiens, NCI-H522
  EC50: > 8 µM
Homo sapiens, NCI-H647
  EC50: > 8 µM
Homo sapiens, NCI-H650
  EC50: > 8 µM
Homo sapiens, NCI-H661
  EC50: > 8 µM
Homo sapiens, NCI-H727
  EC50: > 8 µM
Homo sapiens, NCI-H747
  EC50: 3.94 µM
Homo sapiens, NCI-H810
  EC50: > 8 µM
Homo sapiens, NCI-H1048
  EC50: > 8 µM
Homo sapiens, NCI-H1092
  EC50: > 8 µM
Homo sapiens, NCI-H1355
  EC50: 1.06 µM
Homo sapiens, NCI-H1373
  EC50: > 8 µM
Homo sapiens, NCI-H1563
  EC50: > 8 µM
Homo sapiens, NCI-H1573
  EC50: 1.03 µM
Homo sapiens, NCI-H1581
  EC50: > 8 µM
Homo sapiens, NCI-H1648
  EC50: > 8 µM
Homo sapiens, NCI-H1650
  EC50: 2.37 µM
Homo sapiens, NCI-H1651
  EC50: 2.52 µM
Homo sapiens, NCI-H1666
  EC50: > 8 µM
Homo sapiens, NCI-H1693
  EC50: > 8 µM
Homo sapiens, NCI-H1694
  EC50: > 8 µM
Homo sapiens, NCI-H1792
  EC50: 1.5 µM
Homo sapiens, NCI-H1793
  EC50: 0.881 µM
Homo sapiens, NCI-H1944
  EC50: 2.85 µM
Homo sapiens, NCI-H1975
  EC50: > 8 µM
Homo sapiens, NCI-H2009
  EC50: > 8 µM
Homo sapiens, NCI-H2030
  EC50: > 8 µM
Homo sapiens, NCI-H2052
  EC50: 0.528 µM
Homo sapiens, NCI-H2087
  EC50: 0.238 µM
Homo sapiens, NCI-H2122
  EC50: 0.167 µM
Homo sapiens, NCI-H2170
  EC50: 1.54 µM
Homo sapiens, NCI-H2228
  EC50: > 8 µM
Homo sapiens, NCI-H2444
  EC50: > 8 µM
Homo sapiens, NCI-H2452
  EC50: > 8 µM
Homo sapiens, NCI-H3255
  EC50: > 8 µM
Homo sapiens, NCI-N87
  EC50: > 8 µM
Homo sapiens, NUGC-3
  EC50: 0.178 µM
Homo sapiens, NUGC-4
  EC50: 0.715 µM
Homo sapiens, OC-314
  EC50: > 8 µM
Homo sapiens, OCI-AML2
  EC50: 1.18 µM
Homo sapiens, OE33
  EC50: 2.02 µM
Homo sapiens, ONS-76
  EC50: 1.36 µM
Homo sapiens, OV-90
  EC50: > 8 µM
Homo sapiens, OVCAR-3
  EC50: > 8 µM
Homo sapiens, OVCAR-4
  EC50: > 8 µM
Homo sapiens, OVCAR-8
  EC50: > 8 µM
Homo sapiens, OVSAHO
  EC50: 0.613 µM

— publication PMC6219668 (Oncotarget, 2018)
